Where two headings read alike, the source gives them in different places.
Assays:
HSNECs [1] = conditions: human, 30 μg/ml
Excerpt: (§1) Primary HSNECs were collected with prior approval of the Institutional Review Board at University of Alabama at Birmingham (UAB) (IRB-120305017). Written informed consent from each participant was collected and subjects were screened and negative for a mutation in the cystic fibrosis transmembrane conductance regulator gene. Primary HSNECs were derived from turbinate mucosa from 3 healthy donors undergoing surgery for non-inflammatory conditions and cultured on collagen-coated Costar 6.5-mm-diameter permeable filter supports (Corning, Lowell, Mass.) submerged in established culture media. Differentiation and ciliogenesis occurred in all cultures within 10 to 14 days.^17-26 Matured HSNECs with resistance over 300 Ω/cm^2 and 80% field ciliogenesis by inverted microscopy were subjected to experiments.

Interleukin-8 (IL-8) = assay: LPS-induced IL-8 secretion from HSNEC (ELISA); assay type: cell-based, human; conditions: n=3
Excerpt: as §1
After the incubation period, the basal media (600 μL) were collected and measured for IL-8 concentration in each sample according to the manufacture's protocol (R&D systems, Minneapolis, Minn.). The secreted IL-8 concentration in each sample was evaluated by measuring the absorbance at 450 nm using a microplate reader (Synergy HK, BIO-TEK Instruments, Winooski, Vt.). All samples were performed in triplicate.
To evaluate the anti-inflammatory effects of azithromycin on HSNEC, cells were stimulated with 25 μg/ml of P. aeruginosa lipopolysaccharide (LPS) for 2 hours, and treated with incremental azithromycin concentrations (6, 60, and 180 μg/ml) (FIG. 13). After a 24-hour incubation period, the basolateral media was harvested and secreted IL-8 was measured.

HSNECs [2] = assay: HSNEC viability LDH assay; assay type: cell-based, human
Excerpt: Concentration gradients generated from internal standards (with positive controls) provided by the manufacturer render a theoretical kit detection range in biological samples containing IL-8. […] Louis, Mo.). […] The resulting formazan absorbs maximally at 492 nm and can be measured quantitatively at 490 nm. Total LDH in each sample was expressed as ng/ml.

HSNECs [3] = assay: Paracellular permeability of FITC dextran across HSNECs; assay type: cell-based, human; conditions: for average paracellular permeability of dextran particles: human
Description: The diffusion-barrier of […] is determined by a tight epithelial barrier and tight junction formation and is impacted by a number of chemicals. […] The permeated concentrations of FITC dextran were quantified by a fluorescence microplate reader.

HSNECs [4] = assay: Ciliary beat frequency analysis; assay type: cell-based, human
Description: After applying 100 μL of sterilized PBS as control or PBS containing drug to the apical surface of the cells, the motion images were acquired for 30 minutes. Under each condition, image acquisition was performed using a Basler area scan high-speed monochromatic digital video camera (Basler AG, Ahrensburg, Germany) at a sampling rate of 100 frames per second. The Sisson-Ammons Video Analysis (SAVA) system was used to acquire CBF. Baseline CBF recording was conducted in the previously described manner, and each analysis of CBF was normalized to fold-change over baseline CBF Hz (treatment/baseline).^28

CC[C@H]1OC(=O)[C@H](C)[C@@H](O[C@H]2C[C@@](C)(OC)[C@@H](O)[C@H](C)O2)[C@H](C)[C@@H](O[C@@H]2O[C@H](C)C[C@H](N(C)C)[C@H]2O)[C@](C)(O)C[C@@H](C)CN(C)[C@H](C)[C@@H](O)[C@]1(C)O [azithromycin]
normalized TEER (HSNECs [1]; 3 h): 1.14+/−0.06 Ω/cm^2
normalized TEER (HSNECs [1]; 6 h): 1.02+/−0.37 Ω/cm^2
secreted IL-8 (Interleukin-8 (IL-8); azithromycin 6 μg/ml, 25 μg/ml LPS 2 hours, 24-hour incubation): 4.579 ± 0.399 ng/mL
secreted IL-8 (Interleukin-8 (IL-8); azithromycin 60 μg/ml, 25 μg/ml LPS 2 hours, 24-hour incubation): 4.312 ± 0.057 ng/mL
secreted IL-8 (Interleukin-8 (IL-8); azithromycin 180 μg/ml, 25 μg/ml LPS 2 hours, 24-hour incubation): 4.269 ± 0.258 ng/mL
cellular viability of HSNECs, LDH (HSNECs [2]): No detrimental effect on the cellular viability
paracellular permeability of HSNECs over time (HSNECs [3]): No alterations in average paracellular permeability
average paracellular permeability of dextran particles (HSNECs [3]; 3 h): 0.10+/−0.15%
average paracellular permeability of dextran particles (HSNECs [3]; 6 h): 3.44+/−0.24%
ciliary beat frequency (HSNECs [4]): No significant difference in ciliary beat frequency

O=C(O)c1cn(C2CC2)c2cc(N3CCNCC3)c(F)cc2c1=O [ciprofloxacin]
secreted IL-8 (Interleukin-8 (IL-8); ciprofloxacin 2.4 μg/ml alone with LPS exposure): 6.40 ± 0.26 ng/mL
cellular viability of HSNECs, LDH (HSNECs [2]): No detrimental effect on the cellular viability
ciliary beat frequency (HSNECs [4]): No significant difference in ciliary beat frequency
